ChEMBL document CHEMBL3232945 (Eur J Med Chem, 2014)

Legend:
[1] = tested on: Rattus norvegicus; test: Toxicity in anaesthetized-Wistar rat assessed as P-Q ECG interval at 40 mg/kg, ip after 15 mins (reference value: 52.2 +/- 1.158 ms); assay type: organism-based; design: dose 40 mg/kg, route intraperitoneal; conditions: in vivo, 0.25 h
[2] = tested on: Rattus norvegicus; test: Antiarrhythmic activity in barium chloride-induced Wistar rat assessed as increase in mortality time at 40 mg/kg, ip administered 60 mins before barium chloride challenge (reference value: 682.8 +/- 9.656 secs); assay type: functional, Heart; conditions: route intraperitoneal
[3] = tested on: Rattus norvegicus; test: Toxicity in anaesthetized-Wistar rat assessed as Q-T ECG interval at 40 mg/kg, ip after 30 mins (reference value: 78.3 +/- 0.860 ms); assay type: organism-based; design: dose 40 mg/kg, route intraperitoneal; conditions: in vivo, 0.5 h
[4] = tested on: Rattus norvegicus; test: Antihypertensive activity in Wistar rat assessed as mean arterial pressure at 40 mg/kg, ip after 45 mins (reference value: 193.96 +/- 0.865 mmHg); assay type: functional, Artery; conditions: route intraperitoneal
[5] = tested on: Rattus norvegicus; test: Toxicity in anaesthetized-Wistar rat assessed as Q-T ECG interval at 40 mg/kg, ip after 60 mins (reference value: 79.7 +/- 0.965 ms); assay type: organism-based; design: dose 40 mg/kg, route intraperitoneal; conditions: in vivo, 1 h
[6] = tested on: Rattus norvegicus; test: Toxicity in anaesthetized-Wistar rat assessed as P-Q ECG interval at 40 mg/kg, ip after 30 mins (reference value: […] +/- 0.927 ms); assay type: organism-based; design: dose 40 mg/kg, route intraperitoneal; conditions: in vivo, 0.5 h
[7] = tested on: Rattus norvegicus; test: Toxicity in […] normotensive Wistar rat assessed as mean arterial pressure at 40 mg/kg, ip measured immediately at 0 min (reference value: 94.21 +/- 2.065 mmHg); assay type: organism-based, Artery; design: dose 40 mg/kg, route intraperitoneal; conditions: in vivo, 0 h
[8] = tested on: Rattus norvegicus; test: Toxicity in […] normotensive Wistar rat assessed as mean arterial pressure at 40 mg/kg, ip after 30 mins (reference value: 94.68 +/- 1.213 mmHg); assay type: organism-based, Artery; design: dose 40 mg/kg, route intraperitoneal; conditions: in vivo, 0.5 h
[9] = tested on: Rattus norvegicus; test: Toxicity in anesthetized-normotensive Wistar rat assessed as heart rate at 40 mg/kg, ip after 30 mins (reference value: 317.68 +/- 7.631 bpm); assay type: organism-based; design: dose 40 mg/kg, route intraperitoneal; conditions: in vivo, 0.5 h
[10] = tested on: Rattus norvegicus; test: Antihypertensive activity in Wistar rat assessed as mean arterial pressure at 40 mg/kg, ip after 60 mins (reference value: 195.11 +/- 0.531 mmHg); assay type: functional, Artery; conditions: route intraperitoneal
[11] = tested on: Rattus norvegicus; test: Antihypertensive activity in Wistar rat assessed as mean arterial pressure at 40 mg/kg, ip after 30 mins (reference value: 194.72 +/- 1.002 mmHg); assay type: functional, Artery; conditions: route intraperitoneal
[12] = tested on: Rattus norvegicus; test: Toxicity in anaesthetized-Wistar rat assessed as QRS ECG interval at 40 mg/kg, ip after 45 mins (reference value: 20.2 +/- 1.348 ms); assay type: organism-based; design: dose 40 mg/kg, route intraperitoneal; conditions: in vivo, 0.75 h
[13] = tested on: Rattus norvegicus; test: Toxicity in anesthetized-normotensive Wistar rat assessed as heart rate at 40 mg/kg, ip after 15 mins (reference value: 313.93 +/- 9.912 bpm); assay type: organism-based; design: dose 40 mg/kg, route intraperitoneal; conditions: in vivo, 0.25 h
[14] = tested on: Rattus norvegicus; test: Toxicity in […] normotensive Wistar rat assessed as mean arterial pressure at 40 mg/kg, ip after 45 mins (reference value: 94.83 +/- 0.943 mmHg); assay type: organism-based, Artery; design: dose 40 mg/kg, route intraperitoneal; conditions: in vivo, 0.75 h
[15] = tested on: Rattus norvegicus; test: Toxicity in anaesthetized-Wistar rat assessed as QRS ECG interval at 40 mg/kg, ip measured immediately at 0 min (reference value: 19.6 +/- 1.142 ms); assay type: organism-based; design: dose 40 mg/kg, route intraperitoneal; conditions: in vivo, 0 h
[16] = tested on: Rattus norvegicus; test: Toxicity in anaesthetized-Wistar rat assessed as QRS ECG interval at 40 mg/kg, ip after 60 mins (reference value: 19.3 +/- 0.873 ms); assay type: organism-based; design: dose 40 mg/kg, route intraperitoneal; conditions: in vivo, 1 h
[17] = tested on: Rattus norvegicus; test: Toxicity in […] normotensive Wistar rat assessed as mean arterial pressure at 40 mg/kg, ip after 15 mins (reference value: 93.81 +/- 1.543 mmHg); assay type: organism-based, Artery; design: dose 40 mg/kg, route intraperitoneal; conditions: in vivo, 0.25 h
[18] = tested on: Rattus norvegicus; test: Toxicity in anaesthetized-Wistar rat assessed as P-Q ECG interval at 40 mg/kg, ip measured immediately at 0 min (reference value: 52.4 +/- 0.927 ms); assay type: organism-based; design: dose 40 mg/kg, route intraperitoneal; conditions: in vivo, 0 h
[19] = tested on: Rattus norvegicus; test: Toxicity in anaesthetized-Wistar rat assessed as Q-T ECG interval at 40 mg/kg, ip after 15 mins (reference value: 79.4 +/- 1.270 ms); assay type: organism-based; design: dose 40 mg/kg, route intraperitoneal; conditions: in vivo, 0.25 h
[20] = tested on: Rattus norvegicus; test: Toxicity in anaesthetized-Wistar rat assessed as Q-T ECG interval at 40 mg/kg, ip measured immediately at 0 min (reference value: 78.8 +/- 1.030 ms); assay type: organism-based; design: dose 40 mg/kg, route intraperitoneal; conditions: in vivo, 0 h
[21] = tested on: Rattus norvegicus; test: Toxicity in anesthetized-normotensive Wistar rat assessed as heart rate at 40 mg/kg, ip after 45 mins (reference value: 316.82 +/- 8.452 bpm); assay type: organism-based; design: dose 40 mg/kg, route intraperitoneal; conditions: in vivo, 0.75 h
[22] = tested on: Rattus norvegicus; test: Toxicity in anesthetized-normotensive Wistar rat assessed as heart rate at 40 mg/kg, ip after 60 mins (reference value: 314.96 +/- 9.442 bpm); assay type: organism-based; design: dose 40 mg/kg, route intraperitoneal; conditions: in vivo, 1 h
[23] = tested on: Rattus norvegicus; test: Toxicity in […] normotensive Wistar rat assessed as mean arterial pressure at 40 mg/kg, ip after 60 mins (reference value: 95.07 +/- 1.973 mmHg); assay type: organism-based, Artery; design: dose 40 mg/kg, route intraperitoneal; conditions: in vivo, 1 h
[24] = tested on: Rattus norvegicus; test: Toxicity in anaesthetized-Wistar rat assessed as P-Q ECG interval at 40 mg/kg, ip after 45 mins (reference value: 52.5 +/- 0.780 ms); assay type: organism-based; design: dose 40 mg/kg, route intraperitoneal; conditions: in vivo, 0.75 h
[25] = tested on: Rattus norvegicus; test: Toxicity in anesthetized-normotensive Wistar rat assessed as heart rate at 40 mg/kg, ip measured immediately at 0 min (reference value: 316.62 +/- 9.643 bpm); assay type: organism-based; design: dose 40 mg/kg, route intraperitoneal; conditions: in vivo, 0 h
[26] = tested on: Rattus norvegicus; test: Toxicity in anaesthetized-Wistar rat assessed as QRS ECG interval at 40 mg/kg, ip after 15 mins (reference value: 18.9 +/- 1.563 ms); assay type: organism-based; design: dose 40 mg/kg, route intraperitoneal; conditions: in vivo, 0.25 h
[27] = tested on: Rattus norvegicus; test: Antihypertensive activity in Wistar rat assessed as mean arterial pressure at 40 mg/kg, ip measured immediately at 0 min (reference value: 194.08 +/- 1.962 mmHg); assay type: functional, Artery; conditions: route intraperitoneal
[28] = tested on: Rattus norvegicus; test: Antiarrhythmic activity in barium chloride-induced Wistar rat assessed as increase in appearance time of arrhythmia at 40 mg/kg, ip administered 60 mins before barium chloride challenge (reference value: 129.4 +/- 4.373 sec); assay type: functional, Heart; conditions: route intraperitoneal
[29] = tested on: Rattus norvegicus; test: Toxicity in anaesthetized-Wistar rat assessed as QRS ECG interval at 40 mg/kg, ip after 30 mins (reference value: 19.9 +/- 1.393 ms); assay type: organism-based; design: dose 40 mg/kg, route intraperitoneal; conditions: in vivo, 0.5 h
[30] = tested on: Rattus norvegicus; test: Toxicity in anaesthetized-Wistar rat assessed as P-Q ECG interval at 40 mg/kg, ip after 60 mins (reference value: […] +/- 0.924 ms); assay type: organism-based; design: dose 40 mg/kg, route intraperitoneal; conditions: in vivo, 1 h
[31] = tested on: Rattus norvegicus; test: Antihypertensive activity in Wistar rat assessed as mean arterial pressure at 40 mg/kg, ip after 15 mins (reference value: 195.68 +/- 1.623 mmHg); assay type: functional, Artery; conditions: route intraperitoneal

## O=C1/C(=C\c2ccccc2)S/C(=N\c2ccccc2)N1CC(O)CN1CCN(Cc2ccccc2)CC1 (configuration not stated)
[1]
  Activity: 50.4 min
[2]
  Time: 986.7 s
[3]
  Activity: 73.2 min
[4]
  Activity: 166.41 mmHg
[5]
  Activity: 74.2 ms
[6]
  Activity: 50.9 min
[7]
  Activity: 95.09 mmHg
[8]
  Activity: 78.19 mmHg
[9]
  Activity: 283.52 bpm
[10]
  Activity: 179.51 mmHg
[11]
  Activity: 160.63 mmHg
[12]
  Activity: 23.1 min
[13]
  Activity: 312.34 bpm
[14]
  Activity: 72.57 mmHg
[15]
  Activity: 23.4 min
[16]
  Activity: 23.7 min
[17]
  Activity: 92.1 mmHg
[18]
  Activity: 49.8 ms
[19]
  Activity: 74.9 min
[20]
  Activity: 74.3 min
[21]
  Activity: 298.21 bpm
[22]
  Activity: 312.21 bpm
[23]
  Activity: 85.44 mmHg
[24]
  Activity: 51.3 min
[25]
  Activity: 333.62 bpm
[26]
  Activity: 23.2 min
[27]
  Activity: 194.51 mmHg
[28]
  Time: 296.9 s
[29]
  Activity: 23.8 ms
[30]
  Activity: 52.7 min
[31]
  Activity: 179.02 mmHg

## O=C1/C(=C\c2ccccc2)S/C(=N\c2ccccc2)N1CC(O)CN1CCCC1 (configuration not stated)
[1]
  Activity: 51.6 min
[2]
  Time: 918.8 s
[3]
  Activity: 72.6 min
[4]
  Activity: 149.39 mmHg
[5]
  Activity: 70.9 ms
[6]
  Activity: 54.3 min
[7]
  Activity: 93.02 mmHg
[8]
  Activity: 74.76 mmHg
[9]
  Activity: 256.85 bpm
[10]
  Activity: 177.56 mmHg
[11]
  Activity: 148.37 mmHg
[12]
  Activity: 21.1 min
[13]
  Activity: 298.54 bpm
[14]
  Activity: 69.69 mmHg
[15]
  Activity: 20.5 min
[16]
  Activity: 20.6 min
[17]
  Activity: 84.63 mmHg
[18]
  Activity: 50.2 ms
[19]
  Activity: 71.2 min
[20]
  Activity: 70.6 min
[21]
  Activity: 287.15 bpm
[22]
  Activity: 309.32 bpm
[23]
  Activity: 73.12 mmHg
[24]
  Activity: 53.3 min
[25]
  Activity: 318.73 bpm
[26]
  Activity: 21.3 min
[27]
  Activity: 196.1 mmHg
[28]
  Time: 285.3 s
[29]
  Activity: 22.5 ms
[30]
  Activity: 52.8 min
[31]
  Activity: 165.01 mmHg
